# Laboratory results from patent publication US6924311B2, “Methods for affecting various diseases utilizing LXR compounds” (X-Ceptor Therapeutics, Inc., priority 2001, dated 2005).
# Key:
# [1] = Plasma triglyceride levels in wildtype and LXR knockout mice after oral dosing; format: in vivo; details: 10 mg/kg daily oral gavage, 7 days
# Description: To decipher the physiological roles of LXRα and LXRβ mice, seven different lines of mice encompassing four unique LXR genotypes (LXRα+/+, LXRβ+/+=wildtype; LXRα−/−, LXRβ+/+=LXRα−/−; LXRα+/+, LXRβ−/−=LXRβ−/−; LXRα−/−, LXRβ−/−=LXRαβ−/−) were studied. Genetic knockouts of LXRα( LXRα−/−) were generated in two independent mouse strain backgrounds (C57BL/6 and A129). Genetic knockouts of LXRβ (LXRβ−/−) and the double knockout of LXRα and LXRβ (LXRαβ−/−) were generated in a mixed genetic background (C57BL/6×A129). The three appropriate wildtype (LXRα+/+, LXRβ+/+) mouse lines were used as controls. Mice from each line were treated for seven days with 10 mg compound/kg body weight of the LXR agonist Compound 1: N-(2,2,2-trifluoroethyl)-N-[4-(2,2,2- trifluoro-1-hydroxy-1-trifluoromethylethyl)-phenyl]-benzene sulfonamide. […] Compound 1 was administered by daily oral gavage in a sesame oil/ethanol vehicle via a 1-cc syringe fitted with a 20G disposable feeding needle. Compound was solvated in ethanol (5% final volume) and brought up to final volume with sesame oil (Sigma, St. Louis, Mo.).
# To determine the ability of Compound 1 to elevate serum triglycerides non-fasting mice were anesthetized with isofluorane and blood samples were obtained by retro-orbital plexus puncture. Blood samples were collected before the first dose and three hours after dosing on day 1, day 3 and day 7 into heparinized tubes. Samples were centrifuged to obtain plasma and stored at −20° C. Plasma triglyceride levels were determined using a colorimetric enzymatic assay adapted to a 96 well plate format (Infinity Triglyceride Reagent, Sigma, St. Louis, Mo.). Sigma glycerol standards (Sigma, St. Louis, Mo.) were use to generate standard curves. The absorbance of the samples and standards were read using a Multiskan plate reader.
# [2] = Dietary cholesterol absorption, fecal extraction method; format: in vivo, mice; details: 50 mg/kg daily oral, 7 days
# Procedure: Induction of cholesterol efflux pumps such as ABCA1 in the intestine limits the absorption of dietary cholesterol by stimulating the efflux of cholesterol out of intestinal enterocytes and into the intestinal lumen where it is excreted. To examine the effect of LXR pan-agonists on dietary cholesterol absorption, mixed wildtype and LXRαβ−/− mice were treated with vehicle or Compound 1 (50 mg/kg) for seven days prior to the initiation of the cholesterol absorption protocol. Compound 1 was administered by daily oral gavage in a 1% carboxy methyl-cellulose/ethanol vehicle via a 1-cc syringe fitted with a 20G disposable feeding needle. Compound was solvated in ethanol (5% final volume) and brought up to final volume with 1% carboxy methylcellulose. On day seven of the study, animals received a single oral bolus dose of 0.67 μCi [4-^14C]cholesterol (New England Nuclear, Boston, Mass.) and 1.3 μCi [5,6-^3H]sitostanol (ARC, St. Louis Mo.) by gavage in MCT oil (Mead Johnson, Evansville, Ind.). […] Extracted samples were counted on a scintillation counter and then analyzed based upon the following equation. [((^14C/^3H) dosing mixture)−(^14C/^3H) fecal samples)]/((^14C/^3H) dosing mixture). […] This agonist-dependent effect is lost in LXRαβ−/− mice indicating a requirement for LXR activity in mediating this activity.
smiles,measurement,setting,value
"O=S(=O)(c1ccccc1)N(CC(F)(F)F)c1ccc(C(O)(C(F)(F)F)C(F)(F)F)cc1 [Compound 1, N-(2,2,2-trifluoroethyl)-N-[4-(2,2,2-trifluoro-1-hydroxy-1-trifluoromethylethyl)-phenyl]-benzene sulfonamide]",effect on serum triglyceride levels,[1]; LXRβ−/− mice,no effect on the ability of LXR agonists to elevate triglycerides
same,effect on serum triglyceride levels,"[1]; mice lacking LXRα (LXRα−/−, LXRαβ−/−)",elevates serum triglyceride levels only in mice that have LXRα
same,effect on serum triglyceride levels,[1]; wildtype mice,elevates serum triglyceride levels
same,effect on cholesterol absorption,[2]; LXRαβ−/− mice,lost
same,effect on cholesterol absorption,[2]; mixed wildtype mice,significant decrease in cholesterol absorption
